Columns and labels:
[1] = system: vitiligo; settings: monotherapy without ultra violet exposure; personal observation of N Ostovari; cited from earlier work
[2] = system: normal skin surrounding the vitiligo lesion; assay: Topical psoralen / PUVA therapy of vitiligo lesions: skin reaction around the lesion; format: in vivo
Description: FIG. 1 A depicts hyper pigmentation surrounding vitiligo lesion following topical Psoralen therapy

| Compound | Repigmenting potential [1] | Pigmentory change surrounding the vitiligo lesion (FIG. 1A) ([2]; following topical use) | Skin reaction surrounding the vitiligo lesion (FIG. 1B) ([2]; two applications of 1.0% solution at alternate days, topical PUVA therapy) |
| --- | --- | --- | --- |
| C=CC[C@@H]1/C=C(\C)C[C@H](C)C[C@H](OC)[C@H]2O[C@@](O)(C(=O)C(=O)N3CCCC[C@H]3C(=O)O[C@H](/C(C)=C/[C@@H]3CC[C@@H](O)[C@H](OC)C3)[C@H](C)[C@@H](O)CC1=O)[C@H](C)C[C@@H]2OC [tacrolimus] | little or no repigmenting potential | – | – |
| COc1c2occc2cc2ccc(=O)oc12 [8 methoxypsoralen, 9-methoxy-7H-furo[3,2-g][1]-benzopyran-7-one] | – | hyperpigmentation | Erythematous photo toxic reaction |

Reference: US20160235708A1, “TOPICAL PIGMENTORY COMPOSITION” (priority 2013, published 2016)
